Consider 18 molecules from patent US20240043404A1 (AbbVie Inc., priority 2009, published 2024).

The first experiment has as its system RS4;11 cells. Description: RS4;11 cell viability assay (CellTiter Glo).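 Note: acute lymphoblastic leukemia line RS4,11, EC50 derived from percentage of viable cells after treatment relative to untreated controls, cell killing taken as a measure of Bcl-2 inhibition.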 It counts as cell-based, human. Particulars: 50,000 cells per well, 10% human serum, 48 hours; read-out: RS4; 11 EC50 Values.
Procedure: The acute lymphoblastic leukemia (ALL) cell line RS4;11 was used as the primary human cell line to assess the cellular activity of Bcl-2 selective agents in vitro and their efficacy in vivo.
Cell cytotoxicity EC50 values were assessed using CellTiter Glo (Promega) according to the manufacturer's recommendations. The EC50 values were determined as a percentage of viable cells following treatment compared to the untreated control cells.
`CC1(C)CCC(CN2CCN(c3ccc(C(=O)NS(=O)(=O)c4cnc(OC[C@]5(F)CC[C@@](C)(O)CC5)c(Cl)c4)c(Oc4cnc5[nH]ccc5c4)c3)CC2)=C(c2ccc(Cl)cc2)C1` [Example 355, N-({5-chloro-6-[(trans-1-fluoro-4-hydroxy-4-methylcyclohexyl)methoxy]pyridin-3-yl}sulfonyl)-4-(4-{[2-(4-chlorophenyl)-4,4-dimethylcyclohex-1-en-1-yl]methyl}piperazin-1-yl)-2-(1H-pyrrolo[2,3-b]pyridin-5-yloxy)benzamide]: the EC50 worked out at 0.0188 µM.

Still in this experiment, the particulars now being: Homo sapiens, RS4-11, 48 h, 50,000 cells per well, 10% human serum, 48 hours; read-out: RS4; 11 EC50 Values.
In the case of `CC1(C)CCC(CN2CCN(c3ccc(C(=O)NS(=O)(=O)c4ccc(NCC5(N6CCOCC6)CCCCC5)c([N+](=O)[O-])c4)c(Oc4cnc5[nH]ccc5c4)c3)CC2)=C(c2ccc(Cl)cc2)C1` [Example 99, 4-(4-{[2-(4-chlorophenyl)-4,4-dimethylcyclohex-1-en-1-yl]methyl}piperazin-1-yl)-N-[(4-{[(1-morpholin-4-ylcyclohexyl)methyl]amino}-3-nitrophenyl)sulfonyl]-2-(1H-pyrrolo[2,3-b]pyridin-5-yloxy)benzamide], the EC50 was 1.39 µM. Regarding `CCN(C)C(=O)N1CCOC(CNc2ccc(S(=O)(=O)NC(=O)c3ccc(N4CCN(CC5=C(c6ccc(Cl)cc6)CC(C)(C)CC5)CC4)cc3Oc3cnc4[nH]ccc4c3)cc2Cl)C1` (centres unmarked) [Example 333, 2-{[(2-chloro-4-{[4-(4-{[2-(4-chlorophenyl)-4,4-dimethylcyclohex-1-en-1-yl]methyl}piperazin-1-yl)-2-(1H-pyrrolo[2,3-b]pyridin-5-yloxy)benzoyl]sulfamoyl}phenyl)amino]methyl}-N-ethyl-N-methylmorpholine-4-carboxamide], the EC50 is 0.463 µM. `CC1(C)CCC(CN2CCN(c3ccc(C(=O)NS(=O)(=O)c4ccc(OCc5ccoc5)c([N+](=O)[O-])c4)c(Oc4cnc5[nH]ccc5c4)c3)CC2)=C(c2ccc(Cl)cc2)C1` [Example 279, 4-(4-{[2-(4-chlorophenyl)-4,4-dimethylcyclohex-1-en-1-yl]methyl}piperazin-1-yl)-N-{[4-(3-furylmethoxy)-3-nitrophenyl]sulfonyl}-2-(1H-pyrrolo[2,3-b]pyridin-5-yloxy)benzamide]: the EC50 was determined as 0.225 µM. Regarding `CC1(C)CCC(CN2CCN(c3ccc(C(=O)NS(=O)(=O)c4ccc(NC[C@H]5CCCOC5)c([N+](=O)[O-])c4)c(Oc4ccc5[nH]ccc5c4)c3)CC2)=C(c2ccc(Cl)cc2)C1` [Example 22, 4-(4-{[2-(4-chlorophenyl)-4,4-dimethylcyclohex-1-en-1-yl]methyl}piperazin-1-yl)-2-(1H-indol-5-yloxy)-N-[(3-nitro-4-{[(3R)-tetrahydro-2H-pyran-3-ylmethyl]amino}phenyl)sulfonyl]benzamide], the EC50 was 0.085 µM. On to `CC1(C)CCC(CN2CCN(c3ccc(C(=O)NS(=O)(=O)c4ccc(NC[C@@H]5CCCOC5)c([N+](=O)[O-])c4)c(Oc4ccc5[nH]ccc5c4)c3)CC2)=C(c2ccc(Cl)cc2)C1` [Example 21, 4-(4-{[2-(4-chlorophenyl)-4,4-dimethylcyclohex-1-en-1-yl]methyl}piperazin-1-yl)-2-(1H-indol-5-yloxy)-N-[(3-nitro-4-{[(3S)-tetrahydro-2H-pyran-3-ylmethyl]amino}phenyl)sulfonyl]benzamide], for which the EC50 was found to be 0.062 µM. Take `CC(=O)N1CC[C@@H](Nc2ccc(S(=O)(=O)NC(=O)c3ccc(N4CCN(CC5=C(c6ccc(Cl)cc6)CC(C)(C)CC5)CC4)cc3Oc3cnc4[nH]ccc4c3)cc2[N+](=O)[O-])C1` [Example 154, N-[(4-{[(3R)-1-acetylpyrrolidin-3-yl]amino}-3-nitrophenyl)sulfonyl]-4-(4-{[2-(4-chlorophenyl)-4,4-dimethylcyclohex-1-en-1-yl]methyl}piperazin-1-yl)-2-(1H-pyrrolo[2,3-b]pyridin-5-yloxy)benzamide]: the EC50 amounted to 0.0265 µM. The same measure, in the same setting: under `CC1(C)CCC(CN2CCN(c3ccc(C(=O)NS(=O)(=O)c4ccc(NCC5CN(C(CF)CF)C5)c([N+](=O)[O-])c4)c(Oc4cnc5[nH]ccc5c4)c3)CC2)=C(c2ccc(Cl)cc2)C1` [Example 161, 4-(4-{[2-(4-chlorophenyl)-4,4-dimethylcyclohex-1-en-1-yl]methyl}piperazin-1-yl)-N-({4-[({1-[2-fluoro-1-(fluoromethyl)ethyl]azetidin-3-yl}methyl)amino]-3-nitrophenyl}sulfonyl)-2-(1H-pyrrolo[2,3-b]pyridin-5-yloxy)benzamide] stands 0.0347 µM; under `CC1(C)CCC(CN2CCN(c3ccc(C(=O)NS(=O)(=O)c4cnc(N[C@H]5CC[C@H](N6CCOCC6)CC5)c(C#N)c4)c(Oc4cnc5[nH]ccc5c4)c3)CC2)=C(c2ccc(Cl)cc2)C1` [Example 109, Trans-4-(4-{[2-(4-chlorophenyl)-4,4-dimethylcyclohex-1-en-1-yl]methyl}piperazin-1-yl)-N-({5-cyano-6-[(4-morpholin-4-ylcyclohexyl)amino]pyridin-3-yl}sulfonyl)-2-(1H-pyrrolo[2,3-b]pyridin-5-yloxy)benzamide], 0.183 µM. As for `CC(=O)N1CCC(Nc2ccc(S(=O)(=O)NC(=O)c3ccc(N4CCN(CC5=C(c6ccc(Cl)cc6)CC(C)(C)CC5)CC4)cc3Oc3cnc4[nH]ccc4c3)cc2[N+](=O)[O-])CC1` [Example 53, N-({4-[(1-acetylpiperidin-4-yl)amino]-3-nitrophenyl}sulfonyl)-4-(4-{[2-(4-chlorophenyl)-4,4-dimethylcyclohex-1-en-1-yl]methyl}piperazin-1-yl)-2-(1H-pyrrolo[2,3-b]pyridin-5-yloxy)benzamide], the EC50 was found to be 0.0667 µM.

Take `CC1(C)CCC(CN2CCN(c3ccc(C(=O)NS(=O)(=O)c4cnc(OC5CCN(C6CCOCC6)CC5)c(C#N)c4)c(Oc4cnc5[nH]ccc5c4)c3)CC2)=C(c2ccc(Cl)cc2)C1` [Example 84, 4-(4-{[2-(4-chlorophenyl)-4,4-dimethylcyclohex-1-en-1-yl]methyl}piperazin-1-yl)-N-({5-cyano-6-[(1-tetrahydro-2H-pyran-4-ylpiperidin-4-yl)oxy]pyridin-3-yl}sulfonyl)-2-(1H-pyrrolo[2,3-b]pyridin-5-yloxy)benzamide]: the EC50 came out at 0.158 µM. Same read-out and setting: in the case of `CC1(C)CCC(CN2CCN(c3ccc(C(=O)NS(=O)(=O)c4cnc(OC[C@H]5C[C@H]6C[C@@H]5C[C@@]6(C)O)c(Cl)c4)c(Oc4cnc5[nH]ccc5c4)c3)CC2)=C(c2ccc(Cl)cc2)C1` [Example 343, N-[(5-chloro-6-{[(1R,2S,4R,5R)-5-hydroxy-5-methylbicyclo[2.2.1]hept-2-yl]methoxy}pyridin-3-yl)sulfonyl]-4-(4-{[2-(4-chlorophenyl)-4,4-dimethylcyclohex-1-en-1-yl]methyl}piperazin-1-yl)-2-(1H-pyrrolo[2,3-b]pyridin-5-yloxy)benzamide] it was 0.127 µM; in that of `CC1(C)CCC(CN2CCN(c3ccc(C(=O)NS(=O)(=O)c4cnc(O[C@@H]5CCN(C(CF)CF)C5)c(Cl)c4)c(Oc4cnc5[nH]ccc5c4)c3)CC2)=C(c2ccc(Cl)cc2)C1` [Example 274, N-[(5-chloro-6-{[(3R)-1-(1,3-difluoropropan-2-yl)pyrrolidin-3-yl]oxy}pyridin-3-yl)sulfonyl]-4-(4-{[2-(4-chlorophenyl)-4,4-dimethylcyclohex-1-en-1-yl]methyl}piperazin-1-yl)-2-(1H-pyrrolo[2,3-b]pyridin-5-yloxy)benzamide], 0.214 µM; in that of `CO[C@H]1CC[C@@H](COc2ccc(S(=O)(=O)NC(=O)c3ccc(N4CCN(CC5=C(c6ccc(Cl)cc6)CC(C)(C)CC5)CC4)cc3Oc3cnc4[nH]ccc4c3)cc2[N+](=O)[O-])CC1` [Example 121, 2-(1H-pyrrolo[2,3-b]pyridin-5-yloxy)-4-(4-((2-(4-chlorophenyl)-4,4-dimethylcyclohex-1-enyl)methyl)piperazin-1-yl)-N-(4-((cis-4-methoxycyclohexyl)methoxy)-3-nitrophenylsulfonyl)benzamide], 0.0597 µM. Regarding `CN1CCC(F)(COc2ccc(S(=O)(=O)NC(=O)c3ccc(N4CCN(CC5=C(c6ccc(Cl)cc6)CC(C)(C)CC5)CC4)cc3Oc3cnc4[nH]ccc4c3)cc2Cl)CC1` [Example 283, N-({3-chloro-4-[(4-fluoro-1-methylpiperidin-4-yl)methoxy]phenyl}sulfonyl)-4-(4-{[2-(4-chlorophenyl)-4,4-dimethylcyclohex-1-en-1-yl]methyl}piperazin-1-yl)-2-(1H-pyrrolo[2,3-b]pyridin-5-yloxy)benzamide], the EC50 amounted to 0.0131 µM. Same read-out and setting: in the case of `CC1(C)CCC(CN2CCN(c3ccc(C(=O)NS(=O)(=O)c4ccc(NCC5CCN(C(CF)CF)CC5)c([N+](=O)[O-])c4)c(Oc4cnc5[nH]ccc5c4)c3)CC2)=C(c2ccc(Cl)cc2)C1` [Example 172, 4-(4-{[2-(4-chlorophenyl)-4,4-dimethylcyclohex-1-en-1-yl]methyl}piperazin-1-yl)-N-({4-[({1-[2-fluoro-1-(fluoromethyl)ethyl]piperidin-4-yl}methyl)amino]-3-nitrophenyl}sulfonyl)-2-(1H-pyrrolo[2,3-b]pyridin-5-yloxy)benzamide] it was 0.0205 µM; in that of `CC1(C)CCC(CN2CCN(c3ccc(C(=O)NS(=O)(=O)c4cc(F)c(NCC5CCOCC5)c(Cl)c4)c(Oc4cnc5[nH]ccc5c4)c3)CC2)=C(c2ccc(Cl)cc2)C1` [Example 86, N-({3-chloro-5-fluoro-4-[(tetrahydro-2H-pyran-4-ylmethyl)amino]phenyl}sulfonyl)-4-(4-{[2-(4-chlorophenyl)-4,4-dimethylcyclohex-1-en-1-yl]methyl}piperazin-1-yl)-2-(1H-pyrrolo[2,3-b]pyridin-5-yloxy)benzamide], 1.02 µM; in that of `CC1(C)CCC(CN2CCN(c3ccc(C(=O)NS(=O)(=O)c4ccc(NCC(F)(F)F)c([N+](=O)[O-])c4)c(Oc4cnc5[nH]ccc5c4)c3)CC2)=C(c2ccc(Cl)cc2)C1` [Example 26, 4-(4-{[2-(4-chlorophenyl)-4,4-dimethylcyclohex-1-en-1-yl]methyl}piperazin-1-yl)-N-({3-nitro-4-[(2,2,2-trifluoroethyl)amino]phenyl}sulfonyl)-2-(1H-pyrrolo[2,3-b]pyridin-5-yloxy)benzamide], 0.0589 µM.

The same experiment, now with this note: Homo sapiens, RS4-11, Table 5, direct comparison Z=N with corresponding analogs Z=C; read-out: RS4; 11 EC50.
Take `CC1(C)CCC(CN2CCN(c3ccc(C(=O)NS(=O)(=O)c4ccc(NC[C@H]5CCCOC5)c([N+](=O)[O-])c4)c(Oc4ccc5[nH]ccc5c4)c3)CC2)=C(c2ccc(Cl)cc2)C1` [Example 22, 4-(4-{[2-(4-chlorophenyl)-4,4-dimethylcyclohex-1-en-1-yl]methyl}piperazin-1-yl)-2-(1H-indol-5-yloxy)-N-[(3-nitro-4-{[(3R)-tetrahydro-2H-pyran-3-ylmethyl]amino}phenyl)sulfonyl]benzamide]: the EC50 stood at 0.085 µM. On the same count and under the same terms, in the case of `CC1(C)CCC(CN2CCN(c3ccc(C(=O)NS(=O)(=O)c4ccc(NC[C@@H]5CCCOC5)c([N+](=O)[O-])c4)c(Oc4ccc5[nH]ccc5c4)c3)CC2)=C(c2ccc(Cl)cc2)C1` [Example 21, 4-(4-{[2-(4-chlorophenyl)-4,4-dimethylcyclohex-1-en-1-yl]methyl}piperazin-1-yl)-2-(1H-indol-5-yloxy)-N-[(3-nitro-4-{[(3S)-tetrahydro-2H-pyran-3-ylmethyl]amino}phenyl)sulfonyl]benzamide] it was 0.062 µM.
